Results as given in a compilation of properties of binary mixtures (doi:10.1016/j.molliq.2014.07.031).

Test: xn = mol fraction of the nth substance listed
Settings: 101 kPa

CCCCCC[n+]1ccn(C)c1.[I-] + [I-].[Li+] showed an electrical conductivity (288.1 K, x1 = 0.32) of 0.0025 S/m, an electrical conductivity (288.1 K, x1 = 0.59) of 0.0002 S/m and an electrical conductivity (293 K, x1 = 0.32) of 0.0046 S/m. The electrical conductivity (293 K, x1 = 0.59) was 0.0005 S/m, the viscosity (293 K, x1 = 1) was 2633 mPa·s and the electrical conductivity (298.1 K, x1 = 0.32) was 0.0086 S/m. For the same molecule, the viscosity (298.1 K, x1 = 1) was 1742 mPa·s, the electrical conductivity (303 K, x1 = 0.32) was 0.011 S/m and the electrical conductivity (303 K, x1 = 0.59) was 0.0019 S/m. For the same molecule, the viscosity (303 K, x1 = 0.59) was 7760 mPa·s, the electrical conductivity (308.1 K, x1 = 0.32) was 0.0189 S/m and the viscosity (308.1 K, x1 = 1) was 802 mPa·s. It also gave an electrical conductivity (313 K, x1 = 0.32) of 0.032 S/m, an electrical conductivity (313 K, x1 = 0.59) of 0.0054 S/m and a viscosity (313 K, x1 = 0.59) of 2420 mPa·s. For the same molecule, the viscosity (313 K, x1 = 1) was 564 mPa·s, the electrical conductivity (318.1 K, x1 = 0.32) was 0.0536 S/m and the electrical conductivity (318.1 K, x1 = 0.59) was 0.0086 S/m. For the same molecule, the viscosity (318.1 K, x1 = 0.59) was 1470 mPa·s, the viscosity (318.1 K, x1 = 1) was 405 mPa·s and the electrical conductivity (323 K, x1 = 0.32) was 0.0894 S/m. It also gave an electrical conductivity (323 K, x1 = 0.59) of 0.0133 S/m, a viscosity (323 K, x1 = 0.59) of 989 mPa·s and a viscosity (323 K, x1 = 1) of 279 mPa·s. The electrical conductivity (328.1 K, x1 = 0.32) was 0.145 S/m, the electrical conductivity (328.1 K, x1 = 0.59) was 0.0206 S/m and the viscosity (328.1 K, x1 = 0.59) was 682 mPa·s. It also gave an electrical conductivity (333 K, x1 = 0.59) of 0.0301 S/m, a viscosity (333 K, x1 = 0.59) of 491 mPa·s and a viscosity (333 K, x1 = 1) of 164 mPa·s. The electrical conductivity (338.1 K, x1 = 0.59) was 0.0428 S/m, the viscosity (338.1 K, x1 = 0.59) was 359 mPa·s and the viscosity (338.1 K, x1 = 1) was 123.6 mPa·s. The electrical conductivity (343 K, x1 = 0.32) was 0.504 S/m, the viscosity (343 K, x1 = 0.32) was 380 mPa·s and the electrical conductivity (343 K, x1 = 0.59) was 0.0601 S/m. It also gave a viscosity (343 K, x1 = 0.59) of 272 mPa·s, a viscosity (343 K, x1 = 1) of 100.4 mPa·s and an electrical conductivity (348.1 K, x1 = 0.59) of 0.082 S/m. The viscosity (348.1 K, x1 = 0.59) was 219 mPa·s, the viscosity (348.1 K, x1 = 1) was 79.9 mPa·s and the electrical conductivity (353 K, x1 = 0.32) was 0.842 S/m. For the same molecule, the viscosity (353 K, x1 = 0.32) was 225 mPa·s, the electrical conductivity (353 K, x1 = 0.59) was 0.109 S/m and the viscosity (353 K, x1 = 0.59) was 179 mPa·s. For the same molecule, the viscosity (353 K, x1 = 1) was 64.6 mPa·s, the electrical conductivity (358.1 K, x1 = 0.32) was 1.04 S/m and the viscosity (358.1 K, x1 = 0.32) was 177 mPa·s. The electrical conductivity (358.1 K, x1 = 0.59) was 0.142 S/m, the viscosity (358.1 K, x1 = 0.59) was 144.7 mPa·s and the viscosity (358.1 K, x1 = 1) was 52.1 mPa·s. It also gave an electrical conductivity (363 K, x1 = 0.32) of 1.27 S/m, a viscosity (363 K, x1 = 0.32) of 144.7 mPa·s and an electrical conductivity (363 K, x1 = 0.59) of 0.182 S/m. It also gave a viscosity (363 K, x1 = 0.59) of 119.9 mPa·s, a viscosity (363 K, x1 = 1) of 42 mPa·s and an electrical conductivity (368.1 K, x1 = 0.32) of 1.61 S/m. For the same molecule, the viscosity (368.1 K, x1 = 0.32) was 124.1 mPa·s, the electrical conductivity (368.1 K, x1 = 0.59) was 0.232 S/m and the viscosity (368.1 K, x1 = 0.59) was 101.5 mPa·s. It also gave an electrical conductivity (373 K, x1 = 0.59) of 0.287 S/m.
